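96-well plates; 48 h exposure; 5 concentrations. Endpoints by linear interpolation between flanking doses. Not reached: highest tested concentration assigned. TGI marks complete inhibition of growth.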
What was measured:
Experiment in all cases: NCI-60 cell line screen, 48 h
SR leukemia = system: SR leukemia
A498 renal = system: A498 renal
NCI-H522 lung = system: NCI-H522 lung
SK-MEL-5 melanoma = system: SK-MEL-5 melanoma
HOP-92 NSCLC = system: HOP-92 NSCLC
MDA-MB-435 = system: MDA-MB-435
SW-620 colon = system: SW-620 colon
COLO 205 colon = system: COLO 205 colon
HCT-15 colon = system: HCT-15 colon
SNB-19 CNS = system: SNB-19 CNS
U251 CNS = system: U251 CNS
LOX IMVI melanoma = system: LOX IMVI melanoma
RXF 393 renal = system: RXF 393 renal
HL-60(TB) leukemia = system: HL-60(TB) leukemia
RPMI-8226 leukemia = system: RPMI-8226 leukemia
NCI-H23 lung = system: NCI-H23 lung
PC-3 prostate = system: PC-3 prostate
SK-MEL-2 melanoma = system: SK-MEL-2 melanoma
KM12 colon = system: KM12 colon

Row | Structure (SMILES) | TGI (SR leukemia) | TGI (A498 renal) | TGI (NCI-H522 lung) | TGI (SK-MEL-5 melanoma) | TGI (HOP-92 NSCLC) | TGI (MDA-MB-435) | TGI (SW-620 colon) | TGI (COLO 205 colon) | TGI (HCT-15 colon) | TGI (SNB-19 CNS) | TGI (U251 CNS) | TGI (LOX IMVI melanoma) | TGI (RXF 393 renal) | TGI (HL-60(TB) leukemia) | TGI (RPMI-8226 leukemia) | TGI (NCI-H23 lung) | TGI (PC-3 prostate) | TGI (SK-MEL-2 melanoma) | TGI (KM12 colon)
1 | CC(=O)NCCCCN(CCCNC(C)=O)C(=O)CNS(=O)(=O)c1cccc2c(N(C)C)cccc12 | > 100 µM | > 100 µM | > 100 µM | > 100 µM | > 100 µM | > 100 µM | > 100 µM | > 100 µM | > 100 µM | > 100 µM | > 100 µM | > 100 µM | > 100 µM | > 100 µM | > 100 µM | > 100 µM | > 100 µM | > 100 µM | –
2 | CC1(C)C2CCC1(C)C(OC(=O)/C=C/C(=O)OC1CC3CCC1(C)C3(C)C)C2 (stereo not drawn) | 55.7 µM | > 100 µM | > 100 µM | > 100 µM | > 100 µM | > 100 µM | > 100 µM | > 100 µM | > 100 µM | > 100 µM | > 100 µM | 49.9 µM | > 100 µM | 40.7 µM | – | > 100 µM | > 100 µM | > 100 µM | > 100 µM
3 | Cc1cc(C)nc(NS(=O)(=O)c2ccc(Nc3c4ccccc4nc4c(C(=O)NC(CO)(CO)CO)cccc34)cc2)n1 | 67.2 µM | > 100 µM | 31.7 µM | 44.5 µM | > 100 µM | 51.6 µM | > 100 µM | 42.6 µM | > 100 µM | > 100 µM | 83.5 µM | 42.2 µM | – | 97.9 µM | 91.8 µM | > 100 µM | > 100 µM | 44.4 µM | 36.4 µM
4 | C/C=C(/C)C(=O)O[C@H]1[C@H]2[C@@H]([C@@H](OC(C)=O)[C@H](C)C(=O)[C@@]34C[C@@H](C)C(=O)[C@]3(/C=C(\C)[C@H]1OC(C)=O)O4)C2(C)C | 7.34 µM | 16 µM | 6.29 µM | 7.75 µM | 7.73 µM | 6.6 µM | 6.41 µM | 5.32 µM | 5.77 µM | 18.4 µM | > 20 µM | 6.27 µM | 6.75 µM | 2.13 µM | 9.94 µM | > 20 µM | 15.8 µM | 11 µM | 17.8 µM
5 | CCC/C(Cl)=N/OC(=O)Nc1cc(C(F)(F)F)ccc1OC | 13.5 µM | 28.4 µM | 2.99 µM | 19.9 µM | 6.56 µM | 26.3 µM | 11.4 µM | 3.45 µM | 16.6 µM | 31.5 µM | 31.6 µM | 16.2 µM | 18.3 µM | > 100 µM | 6.05 µM | 37.2 µM | 29.7 µM | 31.5 µM | 33.5 µM
6 | C=C1[C@H](OCC(C)C)[C@@H](O)[C@@H](OC(=O)c2cccnc2)C(C)(C)/C=C/[C@H](C)[C@H](OC(C)=O)[C@@]2(O)C[C@@](C)(OC(C)=O)[C@H](OC(=O)c3ccccc3)[C@@H]2[C@H]1OC(C)=O | > 3.35 µM | 2.79 µM | 2.54 µM | > 5 µM | > 5 µM | > 3.97 µM | > 5 µM | > 5 µM | 4.97 µM | > 5 µM | > 5 µM | > 5 µM | > 5 µM | > 2.09 µM | 3.35 µM | > 3.13 µM | > 5 µM | > 3.78 µM | > 2.97 µM
7 | COC(=O)c1ccccc1CC1Cc2cc3c(cc2C1=O)CCC3 (stereo not drawn) | > 69 µM | > 61.1 µM | 27.1 µM | 20.9 µM | 42.4 µM | 10.7 µM | > 100 µM | 28.4 µM | > 67.3 µM | > 100 µM | 42.3 µM | 31.1 µM | 17.1 µM | 27.6 µM | 54.5 µM | 75.1 µM | > 100 µM | 19.7 µM | > 100 µM
8 | O/N=C(/CC(O)(C(F)(F)F)C(F)(F)F)c1ccccc1 | > 10 µM | > 10 µM | > 10 µM | > 10 µM | > 10 µM | > 10 µM | > 10 µM | > 10 µM | > 10 µM | > 10 µM | > 10 µM | > 10 µM | > 10 µM | > 10 µM | > 10 µM | > 10 µM | > 10 µM | > 10 µM | > 10 µM
9 | O=C1CSC(c2ccccc2)N1c1ccc(-n2c(-c3ccccc3)nc3ccccc3c2=O)cc1 (stereo not drawn) | > 100 µM | > 100 µM | > 100 µM | > 100 µM | > 100 µM | > 100 µM | > 100 µM | > 100 µM | > 100 µM | > 100 µM | > 100 µM | > 100 µM | > 100 µM | > 100 µM | > 100 µM | > 100 µM | > 100 µM | > 100 µM | > 100 µM
10 | CCOC(=O)CC[C@H](NC(=O)N[C@H](C)c1ccccc1)C(=O)OCC | > 100 µM | > 100 µM | – | > 100 µM | 39.3 µM | 69.1 µM | > 100 µM | 32.7 µM | > 100 µM | > 100 µM | > 100 µM | > 100 µM | – | > 100 µM | > 100 µM | > 100 µM | > 100 µM | 52.8 µM | > 100 µM
11 | CC(C)(C)C1CCC2c3c([nH]c4ccccc34)C3C(=O)N(c4ccccc4Cl)C(=O)C3C2C1 (stereo not drawn) | > 100 µM | 52.6 µM | – | 28.7 µM | 0.739 µM | > 100 µM | 22.7 µM | – | 31.6 µM | > 100 µM | 50.6 µM | 28.5 µM | 33.3 µM | 50.5 µM | > 100 µM | 62.7 µM | 28 µM | 35 µM | –
12 | CC(C)(C)C1CCC2c3c([nH]c4ccccc34)C3C(=O)N(c4ccccc4[N+](=O)[O-])C(=O)C3C2C1 (stereo not drawn) | > 100 µM | 36.5 µM | – | 26.7 µM | 9.1 µM | > 100 µM | 27 µM | 24.1 µM | 37.6 µM | 82.5 µM | 40.3 µM | 31.4 µM | 19 µM | 27.5 µM | > 100 µM | 22.1 µM | 26.1 µM | 35.6 µM | –
